US20220220125A1, “FUSED ISOINDOLIN-1-ONE DERIVATIVES USEFUL AS GRK2 INHIBITORS” (Janssen Pharmaceutica NV, priority 2019, published 2022)

Biological target: T1, GRK2 (Homo sapiens, UniProt P25098)
T1 sequence (P25098 1-689): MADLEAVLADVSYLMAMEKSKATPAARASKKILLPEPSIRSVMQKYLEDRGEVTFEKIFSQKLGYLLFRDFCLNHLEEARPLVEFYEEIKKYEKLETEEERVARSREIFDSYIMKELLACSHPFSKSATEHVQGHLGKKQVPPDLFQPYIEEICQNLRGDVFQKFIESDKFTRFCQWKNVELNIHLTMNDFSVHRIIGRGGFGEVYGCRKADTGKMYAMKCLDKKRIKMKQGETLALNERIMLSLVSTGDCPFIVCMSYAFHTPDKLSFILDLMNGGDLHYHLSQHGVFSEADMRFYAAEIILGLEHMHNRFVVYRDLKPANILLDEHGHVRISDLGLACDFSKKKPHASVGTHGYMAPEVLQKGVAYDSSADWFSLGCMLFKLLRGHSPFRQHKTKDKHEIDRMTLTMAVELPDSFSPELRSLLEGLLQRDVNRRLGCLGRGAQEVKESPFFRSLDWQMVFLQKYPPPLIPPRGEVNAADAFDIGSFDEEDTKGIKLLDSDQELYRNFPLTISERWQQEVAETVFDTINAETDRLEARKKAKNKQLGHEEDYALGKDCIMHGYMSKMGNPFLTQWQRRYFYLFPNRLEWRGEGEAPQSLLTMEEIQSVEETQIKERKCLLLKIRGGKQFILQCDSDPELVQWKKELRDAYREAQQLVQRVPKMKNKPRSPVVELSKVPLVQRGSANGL
Assay: hGRK2 LANCE Ultra in vitro kinase assay
Format: biochemical
Settings: 10 nM GRK2; ATP 30 or 600 μM (not stated which); read-out: GRK2 Lancer IC50
Method: hGRK2 LANCER In Vitro Assay
This assay is sensitive and requires as low as 10 nM enzyme, in a total volume of 10 μL. In addition, the ATP concentration can be varied over a broad range, without interfering with the assay or changing the assay condition. […] Testing inhibitors routinely at both high and low ATP concentrations also enables identification of potential non-ATP competitive inhibitors.
This assay measures IC50 values of test compounds (inhibitors) by monitoring GRK2 enzymatic activity at varying inhibitor concentrations.
Test compounds were dissolved in DMSO at 1 mM and were 3-fold serial diluted. The compound DMSO solutions were then added (100 nL) into a plate well using an acoustic dispenser. To each well was then added 20 nM GRK2 (5 μL) in assay buffer (20 mM HEPES, pH 7.5, 10 mM MgCl2, 0.001% Tween-20). The plate was sealed and centrifuged at 1000 rpm for 1 min. The plate and wells containing a mixture of GRK2 and test compound were incubated at ambient temperature for 30 min (prior to initializing the enzymatic reaction).
Enzyme reactions were initiated by the addition of 4.9 μL Substrates/Eu-Ab mix to each well. […] Final concentrations of reagents in the assays were as follows: 20 mM HEPES, pH 7.5; 10 mM MgCl2; 0.001% Tween-20 (w/v); 30 or 600 μM ATP; 200 nM ULight-peptide; 4 nM Eu-Ab; 10 nM GRK2; and 1% DMSO.
The plates were sealed and centrifuged at 1000 rpm for 1 min. For reactions at low ATP concentration (30 μM), reaction mixtures were incubated at ambient temperature for 120 min. For reactions at high ATP concentration (600 μM), reaction mixtures were incubated at ambient temperature for 60 min.
The enzyme reactions were quenched by addition of 10 μL of 12 mM EDTA in 1× LANCE detection solution to each well. The plates were then incubated at ambient temperature for 30 min. Time-resolved fluorescence signal of reactions were read on an EnVision or PHERAstar plate reader with the following parameters: Excitation wavelength=337 nm, emission wavelength (donor)=620 nm; emission wavelength (acceptor)=665 nm.
The raw HTRF data were converted to % active as follows:
% active=(sample−NC)/(PC−NC)*100
where NC is the mean of negative control (reactions without GRK2), and PC is the mean of positive control (reactions with GRK2 but without inhibitor). IC50 values were determined from a 4-parameter fit, using the following equation:
Y=Bottom+(Top−Bottom)/(1+10^((Log IC50-X)*Hill slope)),
where X=log10 of the compound concentration.

Compound | IC50 [nM]
COc1cccc([C@H]2COC/C=C\CC3c4ccc(-c5cn[nH]c5)cc4C(=O)N32)c1 (mixture of isomers) [Compound 8] | 166
COc1cccc([C@H]2COCCCCC3c4ccc(-c5cn[nH]c5)cc4C(=O)N32)c1 (mixture of isomers) [Compound 9] | 1400
COc1cccc([C@H]2COC/C=C\CC3c4ccc(-c5cn[nH]c5)nc4C(=O)N32)c1 (mixture of isomers) [Compound 14] | 1010
COc1cccc(N2CCCCC3c4ccc(-c5cn[nH]c5)cc4C(=O)N32)c1 (racemic) [Compound 15, (Rac)-1-(3-methoxyphenyl)-8-(1H-pyrazol-4-yl)-1,2,3,4,5,5a-hexahydro-10H-[1,2]diazepino[7,1-a]isoindol-10-one] | 6
COc1cccc(N2CC=CCC3c4ccc(-c5cn[nH]c5)cc4C(=O)N32)c1 (racemic) [Compound 16, 1-(3-methoxyphenyl)-8-(1H-pyrazol-4-yl)-1,2,5,5a-tetrahydro-10H-[1,2]diazepino[7,1-a]isoindol-10-one] | 8
COc1cccc(C2CCCCC3c4ccc(-c5cn[nH]c5)cc4C(=O)N23)c1 (single isomer, unassigned) [Compound 1, (7R*)-7-(3-methoxyphenyl)-3-(1H-pyrazol-4-yl)-7,8,9,10,11,11a-hexahydro-5H-azepino[2,1-a]isoindol-5-one] | < 5
O=C1c2cc(-c3cn[nH]c3)ccc2C2CCCCC(c3cccc(O)c3)N12 (single isomer, unassigned) [Compound 2, (7S*)-7-(3-hydroxyphenyl)-3-(1H-pyrazol-4-yl)-7,8,9,10,11,11a-hexahydro-5H-azepino[2,1-a]isoindol-5-one] | 8
COc1cccc(C2CCCCC3c4ccc(-c5cn[nH]c5)cc4C(=O)N23)c1 (single isomer, unassigned) [Compound 3, (7S*)-7-(3-methoxyphenyl)-3-(1H-pyrazol-4-yl)-7,8,9,10,11,11a-hexahydro-5H-azepino[2,1-a]isoindol-5-one] | 9
COc1cccc(C2CCCCC3c4ccc(-c5cn[nH]c5)cc4C(=O)N23)c1 (single isomer, unassigned) [Compound 5] | 11
O=C1c2cc(-c3cn[nH]c3)ccc2C2CCCCC(c3cccc(O)c3)N12 (single isomer, unassigned) [Compound 6, (7R*)-7-(3-hydroxyphenyl)-3-(1H-pyrazol-4-yl)-7,8,9,10,11,11a-hexahydro-5H-azepino[2,1-a]isoindol-5-one] | 12
COc1cc(F)cc(C2CCCCC3c4ccc(-c5cn[nH]c5)cc4C(=O)N23)c1 (stereo not drawn) [Compound 4] | 9
COc1cc(F)cc(C2CCCCC3c4ccc(-c5cn[nH]c5)cc4C(=O)N23)c1 (stereo not drawn) [Compound 7] | 24
